Laboratory results: patent US20250287945A1, “COMPOSITIONS FOR FUNGAL CONTROL AND RELATED METHODS” (priority 2021, published 2025)
“And” between values parts separate entries of the source, which are not always exact repeats. Identical values can stand only once. “Also recorded” adds a separate entry of the source. Like-named read-outs stand apart in the source and are kept apart here.

Columns and labels:
[1] = tested on: Fusarium conidial suspension; experiment: Fusarium viability colorimetric assay (PrestoBlue resazurin); type: cell-based
Method: A Fusarium conidial suspension was prepared from a 7-day culture of Fusarium biomass grown on potato dextrose agar for 7 days, and quantified by hemocytometer, as described in Example 4. Solutions of fenpiclonil (Millipore Sigma, Cat. no. 36532) and of the individual peptides were prepared in 50% (w/v) ethanol in water, and tested using a PrestoBlue™ (resazurin) viability colorimetric assay as described in Example 4.
The Fusarium conidial suspension, peptide or control treatment solution, and potato dextrose broth (Alpha Biosciences, catalogue no. P16-126) were added to each well of a 96-well plate to obtain the desired treatment concentration and 1×10^6 conidia/mL in a final volume of 150 microliters per well. The plates were covered and incubated at 30° C. for 18 hours and 200 rpm. Fifteen microliters of PrestoBlue™ Cell Viability Reagent (Thermofisher Scientific, Cat no. A13262) were added to each well, and the plate was further incubated before measuring fluorescence at 590 nm emission with excitation at 560 nm using a spectrophotometer (BioTek Synergy H1 Microplate Reader, Fischer Scientific, Cat. no. 11-120-533).

[2] = tested on: Botrytis cinarea (strain CBS 261.71); experiment: Botrytis viability colorimetric assay (PrestoBlue resazurin); type: cell-based, Botrytis cinerea; conditions: for viability decrease relative to that obtained with the positive control (fenpiclonil): sentence prints Fusarium in the Botrytis assay
Botrytis cinerea = experiment: Fungal lesion size on detached Nicotiana benthamiana leaves after topical treatment; type: in vivo, Botrytis cinerea on Nicotiana benthamiana leaves
Method: In one experiment, leaves of similar age were cut from healthy Nicotiana benthamiana plants and the petioles set into plates containing water agar. Leaves were visually divided into quadrants. […] The plates were covered and placed in a humidified secondary container and incubated in a growth chamber under a 14-hour light (20 degrees C.): 10-hour dark (18 degrees C.) cycle. After 11 days, fungal lesions on leaves were photographed and measured manually with a ruler. Leaves were then destained in 70% ethanol for 48 hours with a change of ethanol at 24 hours, rehydrated in water for at least 1 hour, photographed, and the area of the fungal lesions quantified using ImageJ software (see imagej[dot]nih[dot]gov/ij/). […] The leaf quadrants inoculated with B. cinerea and treated with 100 microliters of treatment solution (MES buffer or HH38 in MES buffer) had comparatively larger areas wetted with liquid. All of the leaf quadrants treated with 5 mM MES buffer developed large (average 1.72 cm width) fungal lesions characterized by grey-black fungal growth. […] […] Twenty microliters of a given treatment mixture were pipetted onto a leaf quadrant (3 replicate leaves per treatment for a total of 12 quadrants). After 7 days incubation in a growth chamber, leaves were photographed, destained in 70% ethanol, photographed again, and the area of the fungal lesions quantified using ImageJ software. […] The fungal lesions in the HH38 treatment were also observed to be 39% smaller than in the 2% DMSO treatment, and 19% smaller than in the 5 mM MES treatment, although not to a statistically significant degree using an unpaired t test.

[3] = tested on: Aspergillus fumigatus CBS 120.53; experiment: Micro broth dilution assay in 96-well plates; type: cell-based; conditions: 3 days of incubation; 375 micromolar or 187.5 micromolar; preliminary
[4] = tested on: Aspergillus flavus DSM 1959; experiment: Micro broth dilution assay in 96-well plates; type: cell-based; conditions: 3 days of incubation; 375 micromolar or 187.5 micromolar; preliminary
[5] = tested on: Fusarium oxysporum CBS 130311; experiment: Micro broth dilution assay in 96-well plates; type: cell-based; conditions: 3 days of incubation; 375 micromolar or 187.5 micromolar; preliminary
[6] = tested on: Mucor circinelloides f. janssenii CBS 204.68; experiment: Micro broth dilution assay in 96-well plates; type: cell-based; conditions: 3 days of incubation; 375 micromolar or 187.5 micromolar; preliminary
[7] = tested on: Rhizomucor miehei CBS 147454; experiment: Micro broth dilution assay in 96-well plates; type: cell-based; conditions: 3 days of incubation; 375 micromolar or 187.5 micromolar; preliminary
[8] = tested on: Cryptococcus neoformans DSM 70219; experiment: Micro broth dilution assay in 96-well plates; type: cell-based; conditions: 2 days of incubation; 375 micromolar; preliminary
[9] = tested on: conidia of Fusarium proliferatum; experiment: oCelloScope live-cell imaging of fungal growth (SESA algorithm); type: cell-based
[10] = 375 micromolar, four replicates
[11] = first experiment, 275 micromolar HH38 in 5 mM MES buffer, after 11 days, lesion area by ImageJ, replicate leaves 1-3
[12] = first experiment, 275 micromolar HH38 in 5 mM MES buffer, after 11 days, ruler, replicate leaves 1-3
[13] = second experiment, inoculum pre-mixed with HH38, 7 days, ImageJ area, not statistically significant

| Sequence | Percent Inhibition (Fusarium), Experiment 5, Mean [1] | Botrytis cell viability versus untreated / 50% ethanol carrier ([2]; 375 micromolar) | Percent Inhibition (Botrytis), Mean [2, 10] | viability decrease relative to that obtained with the positive control (fenpiclonil) ([2]; 375 micromolar) | inhibition of growth / growth pattern [3] | inhibition of growth / growth pattern [4] | inhibition of growth / growth pattern [5] | inhibition of growth / growth pattern [6] | inhibition of growth / growth pattern [7] | growth / growth pattern [8] | statistical significance of antifungal activity [9] | SESA value normalized against the untreated control, mean (x) ([9]; 22 hours) | Fusarium cell viability versus untreated / 50% ethanol carrier [1] | Percent Inhibition (Fusarium), Experiment 4, Mean [1] | statistical comparison of normalized values with the untreated control [9] | also measured |
| --- | --- | --- | --- | --- | --- | --- | --- | --- | --- | --- | --- | --- | --- | --- | --- | --- |
| WHWLQLKPGQPMYGGGGSWHWLQLKPGQPMY (listed as Saccharomyces cerevisiae) [SEQ ID NO: 2189, Saccharomyces cerevisiae alpha pheromone homodimer including glycine linker] | 79.77% | reducing Botrytis cell viability as well as did the fenpiclonil treatment | 79.77% | roughly about two-thirds of the viability decrease obtained using the positive control | sometimes induced changes in growth pattern | sometimes induced changes in growth pattern | sometimes induced changes in growth pattern | sometimes induced changes in growth pattern | sometimes induced changes in growth pattern | change this species' growth pattern | statistically significant antifungal activity |  |  |  |  | Lesion 1 (cm) (Botrytis cinerea; first experiment, 275 micromolar HH38 in 5 mM MES buffer, 100 microliters per inoculated leaf quadrant, after 11 days, measured with a ruler, replicate leaves 1-3): 0 cm; Lesion 1 (pixels) (Botrytis cinerea; first experiment, 275 micromolar HH38 in 5 mM MES buffer, after 11 days, destained leaves, lesion area by ImageJ, replicate leaves 1-3): 0 pixels; Treatment Average (pixels) (Botrytis cinerea; first experiment, 275 micromolar HH38 in 5 mM MES buffer, after 11 days, lesion area by ImageJ, average of 3 leaves): 157 pixels; Replicate Averages (pixels) (Botrytis cinerea; first experiment, 275 micromolar HH38 in 5 mM MES buffer, after 11 days, lesion area by ImageJ, average of 4 quadrants): 0.00 pixels (2×) and 472 pixels; Lesion 2 (pixels) (Botrytis cinerea; [11]): 0 pixels (2×) and 1889 pixels; Lesion 3 (pixels) (Botrytis cinerea; [11]): 0 pixels; Lesion 4 (pixels) (Botrytis cinerea; [11]): 0 pixels; Treatment Average (cm) (Botrytis cinerea; first experiment, 275 micromolar HH38 in 5 mM MES buffer, after 11 days, ruler, average of 3 leaves): 0.042 cm; Average (cm) per replicate leaf (Botrytis cinerea; first experiment, 275 micromolar HH38 in 5 mM MES buffer, after 11 days, ruler, average of 4 quadrants): 0 cm (2×) and 0.12 cm; Lesion 2 (cm) (Botrytis cinerea; [12]): 0 cm (2×) and 0.5 cm; Lesion 3 (cm) (Botrytis cinerea; [12]): 0 cm; Lesion 4 (cm) (Botrytis cinerea; [12]): 0 cm; leaf quadrants that developed any measurable fungal lesion (Botrytis cinerea; first experiment, result sentence prints 375 micromolar HH38 (method: 275 micromolar), after 11 days): 1 out of 12; fungal lesions smaller than in the 5 mM MES treatment (Botrytis cinerea; [13]): 19%; fungal lesions smaller than in the 2% DMSO treatment (Botrytis cinerea; [13]): 39%; fungal lesions smaller than the untreated (diluted grape juice) control (Botrytis cinerea; second experiment, inoculum pre-mixed with in 2% DMSO in 5 mM MES buffer, 7 days, ImageJ area, statistically significant (unpaired t test)): 44% |
| WHWLQLKPGQPMYWHWLQLKPGQPMY (listed as Saccharomyces cerevisiae) [SEQ ID NO: 2188, Saccharomyces cerevisiae alpha pheromone homodimer with no linker] | 71.82% | reducing Botrytis cell viability as well as did the fenpiclonil treatment | 71.82% | roughly about two-thirds of the viability decrease obtained using the positive control |  |  |  |  |  |  | statistically significant antifungal activity | 0.330 and 0.351 |  |  |  |  |
| WCTWKGQPCW [SEQ ID NO: 2182] | 28.39% |  |  |  |  |  |  |  |  |  |  |  | decreasing Fusarium cell viability; also recorded: decreased Fusarium cell viability; also recorded: less pronounced | 47.78% |  | Botrytis cell viability versus untreated / 50% ethanol carrier [2]: decreased Botrytis cell viability; Percent Inhibition (Botrytis), Mean [2]: 8.56%; SESA value normalized against the untreated control, mean (x) [9]: 1.554 and 1.510 |
| WCGRPGQPC (REGION 1..9: note = Botrytis spp.) [SEQ ID NO: 2183, Botrytis cinerea alpha pheromone] | 42.81% |  | −22.63% |  | No inhibition of growth | No inhibition of growth | No inhibition of growth | No inhibition of growth | No inhibition of growth | reduced growth |  | 1.540 and 1.743 | decreasing Fusarium cell viability; also recorded: decreased Fusarium cell viability; also recorded: less pronounced | 46.67% |  |  |
| WHWLQLKPGQPMY (listed as Saccharomyces cerevisiae) [SEQ ID NO: 2184, Saccharomyces cerevisiae alpha pheromone] | 62.01% | decreased Botrytis cell viability | 45.14% | roughly about two-thirds of the viability decrease obtained using the positive control | No inhibition of growth | No inhibition of growth | No inhibition of growth | No inhibition of growth | No inhibition of growth | reduced growth | statistically significant antifungal activity |  |  | 66.33% | significantly lower than the untreated control |  |
| WKMGQYHQLPPLW [SEQ ID NO: 2185] | 69.60% |  | 52.30% |  |  |  |  |  |  |  |  |  | greatly decreased Fusarium cell viability to about the same level as did the positive control | 70.84% |  | SESA value normalized against the untreated control, mean (x) ([9]; 250 micromolar (nominal, filtered), 22 hours, 30% potato dextrose broth): 0.850; SESA value normalized against the untreated control, mean (x) ([9]; 375 micromolar (nominal, filtered), 22 hours, 30% potato dextrose broth): 0.439; statistical comparison of normalized values with the untreated control ([9]; nominal concentration of 375 micromolar): significantly lower than the untreated control |
| WHWLQLKPGQPMYG (listed as Saccharomyces cerevisiae) [SEQ ID NO: 2186, Saccharomyces cerevisiae alpha pheromone with C-terminal glycine] | 66.45% |  | 47.30% |  |  |  |  |  |  |  | statistically significant antifungal activity | 1.119 and 0.742 | greatly decreased Fusarium cell viability to about the same level as did the positive control | 64.21% | significantly lower than the untreated control |  |
| GWHWLQLKPGQPMY (listed as Saccharomyces cerevisiae) [SEQ ID NO: 2187, Saccharomyces cerevisiae alpha pheromone with N-terminal glycine] | 66.96% |  | 66.96% |  |  |  |  |  |  |  | statistically significant antifungal activity | 0.519 and 0.367 |  |  | significantly lower than the untreated control |  |
